The GI50 is the concentration at which growth is held to half of that of the control. A low value points to more potent growth inhibition. In general, IC50 refers to the concentration at which inhibition is half-maximal.

In one data set the test system is T-47D. Briefly: NCI screen, T-47D (Breast Cancer). It counts as cell-based, human.
In data set [1] the test system is PC3 (human prostate cancer cells). Briefly: SRB cytotoxicity on PC3 cells. It counts as cell-based.
Procedure: Cells were seeded in 96-well microtiter plates at densities of 1000 cells/well. The optimal seeding density was determined to ensure exponential growth in control wells throughout the experimental period and to obtain a linear relationship between absorbance at 492 nm and cell number when analyzed by the sulforhodamine B (SRB) assay (43). 24 hours after seeding the cells were incubated for 1 hour or continuously for 3 days with the drugs (concentration range 0.01 to 500 μM). The cells were washed once and then incubated in drug free medium for 6 days. At the end of the incubation cell growth was determined by the SRB assay, which quantifies viable cells by measuring their total cellular protein content. […] Similar studies were conducted against the growth of PC3 (human prostate cancer cells) and MCF-7 (human breast cancer cells).
A further data set deals with supercoil pBR322 DNA. Briefly: pBR322 strand nicking assay. It counts as biochemical. From the text: When a compound is covalently bound to a purine-N3 in the minor groove of DNA, the adduct is thermally unstable. It is readily hydrolyzed to produce a DNA strand (2). Consequently, the formation of adenine-N3 (or guanine-N3) alkylation adducts can be detected by thermal conversion of supercoil pBR322 DNA (Form I) to nicked open […] DNA (Form II) as a result of the formation of single strand breaks. These two different forms of pBR322 DNA can then be separated by agarose gel electrophoresis, and the relative amounts of each form can be determined by densitometry of methylene blue stained gels (39). The supercoil form of pBR322 DNA is more compact than the open circular form, and as a result, moves further down the gel towards the positive electrode.
Solutions of the drugs dissolved in N,N-dimethylacetamide (DMA) were made at 0.10 mM concentrations, and were always stored in the refrigerator.
Tris buffer solution at pH 7.4 at 25° C. and 0.010 M was made from Tris HCl (0.661 g), Tris base (0.097 g) diluted to a 100 mL volume with distilled water. Then EDTA-Na2—2H2O (0.186 g) and KCl (3.72 g) were added to the Tris HCl solution and diluted to 500 mL volume with distilled water. A TBE solution was prepared from Carolina Lot #4020602 Electrophoresis buffer 20 times TBE diluted to a volume of three liters with deionized water. The agarose gel was prepared from agarose low EEO (0.32 g) dissolved in TBE buffer (40 mL) and heated in a microwave oven until dissolved.
The pBR322 DNA (100 μg/100 μL) from Pharmacia Biotech was in a buffer (10 mM Tris-HCl pH 7.5, and 1 mM EDTA). The DNA was prepared from plasmid DNA isolated from E. coli HB101 by the alkaline lysate procedure and was purified by Sepharcryl S-100 chromatography followed by CsCl-ethidium bromide centrifugation.
The alkylation samples were prepared by adding DNA (10 μL), Tris-EDTA KCl buffer (18 μL), and compound (2 μL) at 100 μM concentration to Eppendorf tubes. The samples were incubated at 40° C. for 40 h. The samples were removed then centrifuged for one minute. 10% SDS (sodium dodecylsulfate) (2 μL), 50% glycerol (5 μL), and bromophenol blue (2 μL) were added to the samples. The contents of the tubes were mixed with a Vortex mixer then centrifuged to consolidate the samples. The agarose gel was covered with TBE-buffer in the chamber. The samples were loaded onto the agarose gel and run at 40 V for three hours, or when the band were about three/fourths of the way down the gel.
The gel was removed and stained with methylene blue (45 min). At this time, the stained gel was placed in a water chamber overnight. The intensities of each band i.e. Form I and II were determined using densitometry.

The test system of data set [2] is K562 human chronic myeloid leukemia cells. As to the kind of experiment: MTT cytotoxicity on K562 cells. It counts as cell-based. The following applies: K562 cells.
For the next data set, the system named is P815 mastocytoma cells. As to the kind of experiment: MTT cytotoxicity on P815 cells. It counts as cell-based, murine. The conditions noted are these: 72 hr incubation. The method, then: The P815 and L1210 cell lines were obtained from American Type Tissue Culture Collection (ATCC). The cell lines were grown in Delbecco's Modified Eagle Medium (DMEM, Atlanta Biologicals) supplemented with 10% fetal bovine serum, Hepes Buffer (2 mM, Mediatech Cellgro, 25-060-Cl), L-Glutamine (2 mM, Mediatech Cellgro), and penicillin/streptomycin (50,000 units penicillin, 50,000 […], Atlanta Biologicals). Cells were maintained at 37° C. in a 5% humidified CO2 atmosphere. Cultured cells were counted using a hemocytometer and resuspended in fresh DMEM at a concentration of 8×10^5 cells/mL. This cell suspension (100 μL) was added to 96 well flat -bottom cell culture plates. At this concentration, 80,000 cells were seeded in each well. Drug solutions (dissolved in DMSO and diluted in DMEM) were added to each well (5 μL/well) resulting in final concentrations ranging from 1×10^−4 to 1×10^−12 M. Quadruplicate wells were prepared for each drug concentration. The plates were incubated for 72 hr at 37° C. in a 5% CO2 atmosphere. MTT (3-(4,5-dimethylthiazol-2-yl)-2,5-diphenyl tetrazolium bromide) was dissolved in PBS (5 mg/ml). After the indicated cell incubation period, 10 μL of this stock MTT solution was added to each well and the plates were further incubated for 4 h at 37° C. in a 5% CO2 atmosphere. […] The contents of the well were mixed thoroughly by pipetting the cell suspension up and down and the plates were allowed to sit at room temperature for 15 min in order to allow for full development of the purple color. The plates were read on a Dynatech Plate Reader, utilizing Dynex Revelation 3.2 software, with a test wavelenth of 570 nm and a reference wavelength of 630 nm.

Values joined by “and” are separate entries in the source; they are usually repeats but may differ in a detail not shown here. Identical values can stand only once. Like-named read-outs stand apart in the source and are kept apart here.

Procedure for CCRF-CEM: (§1) The compounds of this invention were also tested against the panel of 60 human cancer cell lines at the National Cancer Institute, Bethesda, Md. […] The cytrotoxicity studies were conducted using a 48 hour exposure, and measuring the optical density of sulforhodamide B-derived color.
Procedure for DU-145: as §1
Procedure for HS 578T: The compounds of this invention were also tested against the panel of 60 human cancer cell lines at the National Cancer Institute, Bethesda, Md. (44). The cytrotoxicity studies were conducted using a 48 hour exposure, and measuring the optical density of sulforhodamide B-derived color.
Procedure for K-562: as §1
Procedure for MCF7: as §1
Procedure for OVCAR-4: as §1
Procedure for T-47D: as §1
Procedure for U251: as §1
Procedure for UO-31: as §1

`COC(=O)c1[nH]c2c(O)cc(NC(=O)c3cc4cc(OC)c(OC)c(OC)c4[nH]3)c(CCCl)c2c1C(=O)OC` [Compound 22, Dimethyl 4-(2-chloroethyl)-7-hydroxy-5-(5,6,7-trimethoxyindole-2-carboxamido)indole-2,3-dicarboxylate]: the CC50 with T-47D (Homo sapiens, T47D, 48 h, read-out: LC50) was greater than 50 µM. Further, in the data set on T-47D (Homo sapiens, T47D, T-47D, 48 hour exposure), the 50% growth inhibitory concentration (GI50) was determined as 0.171 µM. The molecule further registered a TGI with T-47D (T-47D, 48 hour exposure) greater than 5.00E−05 Molar. Further, the “Percent Growth” value in the data set with T-47D (T-47D, Log10 Concentration −4.3, 48 hour exposure) stood at 14%; with T-47D (T-47D, Log10 Concentration −5.3, 48 hour exposure) it was 33%; with T-47D (T-47D, Log10 Concentration −6.3, 48 hour exposure), 29%; in the data set with T-47D (T-47D, Log10 Concentration −7.3, 48 hour exposure), 74%; in the data set on T-47D (T-47D, Log10 Concentration −8.3, 48 hour exposure), 100%.

`O=C(Nc1cc(O)ccc1CCCl)c1cc2cc(NC(=O)c3cc4ccccc4o3)ccc2[nH]1` [Compound 1, 4-(2-Chloroethyl)-3-[5-(5-benzofuran-2-carboxamido)indole-2-carboxamido]phenol]: the “Percent Growth” value with OVCAR-4 was 108% and 128%; in the data set on OVCAR-4 (OVCAR-4, Log10 Concentration −4.0) it was −82%; with OVCAR-4 (OVCAR-4, Log10 Concentration −5.0), −45%; in the data set on OVCAR-4 (OVCAR-4, Log10 Concentration −7.0) it was 115%; with DU-145 it was 53%; with DU-145 (DU-145, Log10 Concentration −4.0), −96%. Also, the “Percent Growth” value with DU-145 (DU-145, Log10 Concentration −5.0) was −14%; in the data set on DU-145 (DU-145, Log10 Concentration −7.0) it was 104%; in the data set with DU-145 (DU-145, Log10 Concentration −8.0), 101%. Besides, the 50% growth inhibitory concentration (GI50) in the data set on OVCAR-4 (OVCAR-4) was 2.39 µM; with DU-145 (DU-145) it was 1.12 µM. In addition, the TGI with OVCAR-4 (OVCAR-4) was found to be 5.06E−06 Molar; in the data set with DU-145 (DU-145), 6.16E−06 Molar. Further, the CC50 in the data set with CCRF-CEM was greater than 100 µM; in the data set on UO-31, 20 µM; with SR, greater than 100 µM; with HS 578T it was greater than 100 µM; in the data set on K-562, greater than 100 µM; in the data set with MCF7, 5 µM. In addition, the CC50 with U251 was determined as 53.9 µM. In addition, the 50% inhibitory concentration (IC50) in [1] (continuous exposure, read-out: IC50 PC3 Continuous exposure) is 3 µM; in data set [1] (read-out: IC50 PC3 1 hour exposure, 1 hour exposure), 82.4 µM; in data set [2] (continuous exposure (3 days), read-out: IC50 continuous exposure (3 days)) it was 1.47 ± 0.8 µM; in data set [2] (read-out: IC50 1 hour exposure, 1 hour exposure) it was 12.1 ± 1.8 µM; in the data set on P815 mastocytoma cells, 43 µM. Also, the “Form I DNA (%)” value with supercoil pBR322 DNA is recorded as 73 ± 2%. Besides, the “Form II DNA (%)” value in the data set with supercoil pBR322 DNA is recorded as 27 ± 4%.

(Values after patent US6660742B2, “Compositions and methods of the use thereof achiral analogues of CC-1065 and the duocarmycins” (priority 2000, dated 2003).)
